Measured values: patent US20120040951A1, “HETEROARYL COMPOUNDS USEFUL AS RAF KINASE INHIBITORS” (priority 2008, published 2012)

test system: phospho-ERK in melanoma derived WM-266-4 cells; experiment: Mechanistic cellular assay for Raf kinase activity (phospho-ERK, Bio-Plex); type: cell-based; conditions: Homo sapiens, treated 1-2 hr at 37° C., serum free medium, read-out: pERK EC50
Description: (2) Mechanistic Cellular Assay for Raf Kinase Activity
The following method was utilized for quantifying the amount of phospho-ERK in melanoma derived WM-266-4 cells (one allele each of wild type BRaf and mutant BRaf (V600D) as an indicator of Raf kinase activity in cells treated with various kinase inhibitors.
(1) Detached adhered WM-266-4 cells from flask using 0.25% Trypsin. Resuspended cells in growth media (90% RPMI 1640, 10% FBS) and determine cell density.
(2) Seeded cells @ 10,000 cells/well in 96-well (flat bottom) tissue culture plates (36,000 cells/cm^2). Added growth media to a final volume of 200 uL/well and incubated overnight at 37° C.
(1) Prepared compound dilutions (1000× in DMSO) as follows. Starting with a stock of 5 mM compound in DMSO, diluted serially 3-fold in DMSO for a total of eight concentrations (5 mM, 1.67 mM, 0.556 mM, 0.185 mM, 0.062 mM, 0.021 mM, 0.007 mM, 0.002 mM).
(2) Prepared compound-containing media by adding 1 mL treatment media (100% RPMI 1640 without FBS) to 1 μL of compound dilution (from step 3).
(3) Removed plates (from step 2) from incubator. Aspirated media and replace with 150 μL compound-containing media. Incubate for 1-2 hr at 37° C.
(4) Removed plates (from step 5) from incubator and treated each as follows: aspirated compound-containing media and replaced with 300 μL ice-cold 1×PBS, aspirated PBS and replaced with 45 μL lysis buffer (Biorad Bio-Plex lysis buffer containing 0.4% v/v lysis buff. Factor 1, 0.2% v/v lysis buff. Factor 2, and PMSF to 2 mM final concentration), and then placed plate on ice until all plates were treated.
(5) After all plates were processed (step 6), placed plates on an orbital shaker and shook at room temperature for at least 15 min.
(6) Finally, removed plates from shaker, and transfered 40 μL/well of lysate from each to new corresponding 96-well V-bottom plates. At this point, samples may be frozen and stored @−80 C.°.
(1) Thaw (if necessary) plates (from step 8) and added 40 μL of Phospho-Protein Assay Buffer to each 40 μL lysate for a 1:1 dilution.
(2) Prepared phospho-ERK1,2 Bioplex beads by diluting 1:50 with Bioplex Wash Buffer (mixing 49 μL Wash Buffer with 1 μL of phospho-ERK1,2 Bioplex beads for each sample to be analyzed). Protected from light by wrapping tube in aluminum foil and kept at room temperature.
(3) Prepared Filter Plate by adding 100 μL/well Bioplex Wash Buffer and removed by vacuum filtration.
(4) Add 50 μL of bead solution (from step 10) to each well of a prepared Filter Plate (from step 11) and vacuum filter. Wash/filter 2× with 100 μL/well Wash Buffer.
(5) Added 50 μL of each lysate to appropriate well of the Filter Plate (from step 12). For this and all subsequent plate incubation steps, placed plate on an inverted plate cover (reduces background), and wrapped in aluminum foil (to protect from light). Shook overnight at room temperature. Included positive (control lysate) and negative (lysis buffer) controls.
(1) Prepared detection antibody (phospho-ERK1,2 Ab) by diluting 1:25 with Detection Antibody Dilution Buffer Buffer (mixing 24 μL Detection Antibody Dilution Buffer with 1 μL of phospho-ERK1,2 Ab for each sample to be analyzed).
(2) Removed plate (from step 13) from shaker and vacuum filter. Washed/filter plate 3× with 100 μL/well Wash Buffer. Added 25 μL of diluted antibody to each well. Incubated on shaker at RT for 30-45 min.
(3) Prepared streptavidin-PE by diluting 1:100 with Wash Buffer (mixing 49.5 μL Wash Buffer with 0.5 μL of 100× streptavidin-PE for each sample to be analyzed). Protected from light.
(4) Removed plate (from step 15) from shaker and vacuum filter. Washed/filter plate 3× with 100 μL/well Wash Buffer. Add 50 μL of diluted streptavidin-PE solution (from step 16) to each sample well. Incubated on shaker for 10-20 min.
(5) Removed plate from shaker and vacuum filter. Wash/filter plate 3× with 100 μL/well Bead Resuspension Buffer. After last wash resuspended beads in 125 μL Bead Resuspension Buffer. […]

Row | SMILES | EC50
1 | C[C@H](NC(=O)c1cc2c(cn1)ncn2C)c1cnc(Nc2ccc(C(F)(F)F)cc2)cn1 (single isomer, unassigned) [Example 36] | 1000 to 10000 nM
2 | C[C@H](NC(=O)c1cc2c(cn1)ncn2C)c1cnc(Nc2ccc(Cl)c(C(F)(F)F)c2)cn1 (single isomer, unassigned) [Example 237] | 1000 to 10000 nM
3 | Cc1nc2cnc(C(=O)NC(C)c3cnc(Nc4ccc(C(F)(F)F)cc4)s3)cc2n1C (stereo not shown) [Example 10] | 100 to 1000 nM
4 | CC(NC(=O)c1cc2c(cn1)ncn2C1CCN(C)CC1)c1cnc(Nc2ccc(C(F)(F)F)cc2)s1 (stereo not shown) [Example 11] | 100 to 1000 nM
5 | CC(NC(=O)c1cc2c(cn1)ncn2CC(C)(C)C)c1cnc(Nc2ccc(C(F)(F)F)cc2)s1 (stereo not shown) [Example 16] | 100 to 1000 nM
6 | CC(NC(=O)c1cc2c(cn1)ncn2C1CCCCC1)c1cnc(Nc2ccc(C(F)(F)F)cc2)s1 (stereo not shown) [Example 18] | 100 to 1000 nM
7 | CC(NC(=O)c1cc2c(cn1)ncn2CCNC(=O)OC(C)(C)C)c1cnc(Nc2ccc(C(F)(F)F)cc2)s1 (stereo not shown) [Example 21] | 100 to 1000 nM
8 | C[C@@H](NC(=O)c1cc2c(cn1)ncn2[C@@H]1CCN(C(=O)OC(C)(C)C)C1)c1cnc(Nc2ccc(C(F)(F)F)cc2)s1 [Example 22] | 100 to 1000 nM
9 | CC(NC(=O)c1cc2c(cn1)ncn2CCN)c1cnc(Nc2ccc(C(F)(F)F)cc2)s1 (stereo not shown) [Example 23] | 100 to 1000 nM
10 | CC(NC(=O)c1cccc(N2CCOCC2)c1)c1ncc(C(=O)Nc2cc(C(F)(F)F)c(Cl)cn2)s1 (stereo not shown) [Example 45] | 1000 to 10000 nM
11 | CC(NC(=O)c1cccc(CN2CCOCC2)c1)c1ncc(C(=O)Nc2cc(C(F)(F)F)c(Cl)cn2)s1 (stereo not shown) [Example 46] | 1000 to 10000 nM
12 | CC(NC(=O)c1cccc(-c2cccnc2)c1)c1ncc(C(=O)Nc2cc(C(F)(F)F)c(Cl)cn2)s1 (stereo not shown) [Example 47] | 100 to 1000 nM
13 | CC(NC(=O)c1cccc(-n2ccnc2)c1)c1ncc(C(=O)Nc2cc(C(F)(F)F)c(Cl)cn2)s1 (stereo not shown) [Example 48] | 100 to 1000 nM
14 | CC(NC(=O)c1cncc(Br)c1)c1ncc(C(=O)Nc2cc(C(F)(F)F)c(Cl)cn2)s1 (stereo not shown) [Example 50] | 1000 to 10000 nM
15 | C[C@@H](NC(=O)c1ccc2[nH]cnc2c1)c1ncc(C(=O)Nc2cc(C(F)(F)F)c(Cl)cn2)s1 [Example 53] | 100 to 1000 nM
16 | Cc1ccc2cc(C(=O)N[C@H](C)c3ncc(C(=O)Nc4cc(C(F)(F)F)c(Cl)cn4)s3)ccc2n1 [Example 60] | 100 to 1000 nM
17 | C[C@@H](NC(=O)c1ccc2c(ccn2C)c1)c1ncc(C(=O)Nc2cc(C(F)(F)F)c(Cl)cn2)s1 [Example 69] | 1000 to 10000 nM

Row | SMILES | EC50
18 | C[C@@H](NC(=O)c1ccc2c(c1)OCCO2)c1ncc(C(=O)Nc2cc(C(F)(F)F)c(Cl)cn2)s1 [Example 70] | 100 to 1000 nM
19 | CC(C)Cn1cnc2cnc(C(=O)NC(C)c3cnc(Nc4ccc(C(F)(F)F)cc4)cn3)cc21 (stereo not shown) [Example 79] | 100 to 1000 nM
20 | CC(NC(=O)c1cc2c(cn1)ncn2C(C)C)c1cnc(Nc2ccc(C(F)(F)F)cc2)cn1 (stereo not shown) [Example 80] | 100 to 1000 nM
21 | CC(NC(=O)c1cnn2c1CCCC2)c1cnc(Nc2ccc(C(F)(F)F)cc2)s1 (stereo not shown) [Example 83] | ≤ 100 nM
22 | CC(NC(=O)c1cnn2c1CCCC2)c1ncc(C(=O)Nc2cc(C(F)(F)F)c(Cl)cn2)s1 (stereo not shown) [Example 84] | ≤ 100 nM
23 | C[C@@H](NC(=O)c1cnn2c1CCCC2)c1ncc(C(=O)Nc2cc(C(F)(F)F)c(Cl)cn2)s1 [Example 85] | ≤ 100 nM
24 | CC(NC(=O)c1cccc(N2CCOCC2)n1)c1ncc(C(=O)Nc2cc(C(F)(F)F)c(Cl)cn2)s1 (stereo not shown) [Example 88] | 100 to 1000 nM
25 | Cc1nc(-c2cnccn2)sc1C(=O)N[C@H](C)c1ncc(C(=O)Nc2cc(C(F)(F)F)c(Cl)cn2)s1 [Example 100] | 1000 to 10000 nM
26 | C[C@@H](NC(=O)c1cnc(N)s1)c1ncc(C(=O)Nc2cc(C(F)(F)F)c(Cl)cn2)s1 [Example 102] | ≤ 100 nM
27 | CNc1ncc(C(=O)N[C@H](C)c2ncc(C(=O)Nc3cc(C(F)(F)F)c(Cl)cn3)s2)s1 [Example 104] | 100 to 1000 nM
28 | C[C@@H](NC(=O)c1cnc(NCCN2CCCC2)s1)c1ncc(C(=O)Nc2cc(C(F)(F)F)c(Cl)cn2)s1 [Example 105] | 100 to 1000 nM
29 | C[C@@H](NC(=O)c1cn[nH]c1)c1ncc(C(=O)Nc2cc(C(F)(F)F)c(Cl)cn2)s1 [Example 112] | 100 to 1000 nM
30 | Cc1[nH]ncc1C(=O)N[C@H](C)c1ncc(C(=O)Nc2cc(C(F)(F)F)c(Cl)cn2)s1 [Example 113] | 100 to 1000 nM
31 | Cc1c(C(=O)N[C@H](C)c2ncc(C(=O)Nc3cc(C(F)(F)F)c(Cl)cn3)s2)cnn1-c1ccccc1 [Example 114] | 1000 to 10000 nM
32 | Cc1c(C(=O)N[C@H](C)c2ncc(C(=O)Nc3cc(C(F)(F)F)c(Cl)cn3)s2)cnn1C [Example 115] | ≤ 100 nM
33 | C[C@@H](NC(=O)c1cnn(-c2cccnc2)c1)c1ncc(C(=O)Nc2cc(C(F)(F)F)c(Cl)cn2)s1 [Example 116] | 100 to 1000 nM
34 | C[C@@H](NC(=O)c1cnn(-c2ccccc2)c1)c1ncc(C(=O)Nc2cc(C(F)(F)F)c(Cl)cn2)s1 [Example 117] | 1000 to 10000 nM

Further lines, results first:

Row | EC50 | SMILES
35 | ≤ 100 nM | C[C@@H](NC(=O)c1cc2c(cn1)ncn2C)c1cnc(Nc2ccc(Cl)c(C(F)(F)F)c2)cn1 (single isomer, unassigned) [Example 236]
36 | ≤ 100 nM | CC(NC(=O)c1cc2c(cn1)ncn2CCN1CCOCC1)c1cnc(Nc2ccc(C(F)(F)F)cc2)s1 (stereo not shown) [Example 8]
37 | ≤ 100 nM | CC(NC(=O)c1cc2c(cn1)ncn2C1CCOCC1)c1cnc(Nc2ccc(C(F)(F)F)cc2)s1 (stereo not shown) [Example 9]
38 | ≤ 100 nM | CC(NC(=O)c1cc2c(cn1)ncn2C(C)C)c1cnc(Nc2ccc(C(F)(F)F)cc2)s1 (stereo not shown) [Example 12]
39 | ≤ 100 nM | CC(NC(=O)c1cc2c(cn1)ncn2C(C)(C)C)c1cnc(Nc2ccc(C(F)(F)F)cc2)s1 (stereo not shown) [Example 13]
40 | ≤ 100 nM | CC(NC(=O)c1cc2c(cn1)ncn2C1CCC1)c1cnc(Nc2ccc(C(F)(F)F)cc2)s1 (stereo not shown) [Example 14]
41 | ≤ 100 nM | CC(C)Cn1cnc2cnc(C(=O)NC(C)c3cnc(Nc4ccc(C(F)(F)F)cc4)s3)cc21 (stereo not shown) [Example 15]
42 | ≤ 100 nM | CC(NC(=O)c1cc2c(cn1)ncn2C1CCCC1)c1cnc(Nc2ccc(C(F)(F)F)cc2)s1 (stereo not shown) [Example 17]
43 | ≤ 100 nM | CC(NC(=O)c1cc2c(cn1)ncn2C1CC1)c1cnc(Nc2ccc(C(F)(F)F)cc2)s1 (stereo not shown) [Example 19]
44 | ≤ 100 nM | CCn1cnc2cnc(C(=O)N[C@H](C)c3cnc(Nc4ccc(C(F)(F)F)cc4)s3)cc21 [Example 20]
45 | ≤ 100 nM | CCn1cnc2cnc(C(=O)NC(C)c3cnc(Nc4ccc(C(F)(F)F)cc4)cn3)cc21 (stereo not shown) [Example 38]
46 | ≤ 100 nM | C[C@@H](NC(=O)c1cc2nc[nH]c2cn1)c1ncc(C(=O)Nc2cc(C(F)(F)F)c(Cl)cn2)s1 [Example 39]
47 | ≤ 100 nM | CC(NC(=O)c1cc2c(cn1)ncn2C)c1ncc(C(=O)Nc2cc(C(F)(F)F)c(Cl)cn2)s1 (stereo not shown) [Example 40]
48 | ≤ 100 nM | C[C@@H](NC(=O)c1ccc2nc(N)sc2c1)c1ncc(C(=O)Nc2cc(C(F)(F)F)c(Cl)cn2)s1 [Example 59]
49 | ≤ 100 nM | C[C@@H](NC(=O)c1ccc2ncsc2c1)c1ncc(C(=O)Nc2cc(C(F)(F)F)c(Cl)cn2)s1 [Example 61]
50 | ≤ 100 nM | C[C@@H](NC(=O)c1ccc2nccnc2c1)c1ncc(C(=O)Nc2cc(C(F)(F)F)c(Cl)cn2)s1 [Example 63]
51 | ≤ 100 nM | C[C@@H](NC(=O)c1ccc2c(c1)NC(=O)CO2)c1ncc(C(=O)Nc2cc(C(F)(F)F)c(Cl)cn2)s1 [Example 66]
52 | ≤ 100 nM | C[C@@H](NC(=O)c1cnc2[nH]ccc2c1)c1ncc(C(=O)Nc2cc(C(F)(F)F)c(Cl)cn2)s1 [Example 81]
